Legend:
[1] = tested on: PSMA-expressing DU145-PSMA+ prostate cancer cells; assay: In vitro uptake of 99mTc tracers in DU145-PSMA+ cells; assay type: cell-based; conditions: for uptake in DU145-PSMA+ cells (% added radioactivity): 50 kBq purified tracer, 5 × 10^5 cells seeded per well, 37 °C, 1 h incubation, mean ± SD, biological triplicate; for blocking of cell uptake by PSMA inhibitor PMPA: co-incubation with PMPA
Protocol: (§1) To compare the relative uptake and specificity of the new radiotracers for PSMA, [^99mTcO2(DP^Ph-PSMAt)2]^+, [^99mTcO2(DP^An-PSMAt)2]^+ and [^99mTcO2(DP^MEP-PSMAt)2]^+ (50 kBq) were purified from unreacted ^99mTc precursors and excess DP-PSMAt peptide, and each incubated with PSMA-expressing DU145-PSMA+ prostate cancer cells[33] or LNCaP prostate cancer cells (5 × 10^5 cells). After 1 h incubation, uptake of each radiotracer was quantified. […]
(§2) 4.9 99mTc uptake in DU145, DU145-PSMA+ and LNCaP cells
(§3) The following experiment was performed in biological triplicate.
(§4) A panel of cell lines were selected that either expressed GCP(II)/PSMA (DU145-PSMA+ (genetically modified to express PSMA),12 and LNCaP (CRL‐1740)), or had low GCP(II)/PSMA expression (DU145 (HTB-81)). All cell lines were cultured in RPMI 1640 medium (R0883, Sigma) containing 10% foetal bovine serum, 2 mM L-glutamine, and 100 U mL−1 penicillin and 100 µg mL−1 streptomycin. Cells were maintained at 37 °C and 5% CO 2. Cells were seeded in 6-well plates at a density of 5 × 10^5 cells per well […]
in 2 mL complete media to achieve 70–80% confluency the following day. Prior to treating cells, cell medium (1 mL/well) was replaced. Solutions containing either [99mTcO2(DPPh-PSMAt)2]+, [99mTcO2(DPAn-PSMAt)2]+ or [99mTcO2(DPMEP-PSMAt)2]+ (50 kBq in 10 μL of PBS, >95% radiochemical purity) were added to each well, and the cells incubated at 37 °C for 1 h. Uptake studies were also performed after a 2 min incubation with the PSMA inhibitor 2 -(phosphonomethyl)pentane -1,5-dioic acid (PMPA; 30 µL of 750 µM PMPA solution/well). After 60 min incubation, the supernatant was removed, and the cells were washed with PBS solution (2 × 1 mL). The cells were lysed with ice cold radioimmunoprecipitation assay buffer (RIPA buffer, 500 μL; 150 mM sodium chloride, 0.1% w/w sodium dodecyl sulfate (SDS), 0.5% w/w sodium deoxycholate (NaDOC), 1% w/w Triton-X) and samples were collected for radioactivity counting. Results are depicted as means ± SD of independent biological experiments (performed on different days with different radiotracer preparations). […]
Biodistribution studies using 99mTc radiotracers were performed once a tumour had reached 150– 300 mm3 in volume (2–7 weeks after injection).
SCID/beige mice bearing DU145-PSMA+ prostate cancer tumour xenografts
SPECT/CT scanning and biodistribution studies: The 99mTc radiotracers (3.9–4.5 MBq, 3 mice per group, containing DPAn-PSMAt = 3.0 µg or DPMEP-PSMAt = 3.5 µg) were administered via tail vein injection under isoflurane anaesthesia. Following this, SPECT/CT scanning was carried out in one of two methods outlined below, to maintain 2 h biodistribution timepoints : i. The mouse was positioned on a single heated bed in a nanoScan SPECT/CT 80W scanner (Mediso Ltd., Budapest, Hungary) calibrated for 99mTc. A helical CT scan was acquired (50 kV X-ray source, 170 ms exposure time in 360 projections over 3 min). At 15 min post -injection, whole body SPECT scans were acquired (1 × 15 min, 3 × 30 min, conducted sequentially) with a frame time of 13 s and 26 s (using a 4-head scanner with 4 × 9 [1.4 mm] pinhole collimators

[2] = tested on: LNCaP prostate cancer cells; assay: In vitro uptake of 99mTc tracers in LNCaP cells; assay type: cell-based; conditions: co-incubation with PMPA, 1 h
Protocol: as §1, §2, §3, §4
in 2 mL complete media to achieve 70–80% confluency the following day. […] The cells were lysed with ice cold radioimmunoprecipitation assay buffer (RIPA buffer, 500 μL; 150 mM sodium chloride, 0.1% w/w sodium dodecyl sulfate (SDS), 0.5% w/w sodium deoxycholate (NaDOC), 1% w/w Triton-X) and samples were collected for radioactivity counting. […]

Row | Compound | uptake in DU145-PSMA+ cells (% added radioactivity) [1] [%AR] | mean difference in uptake compared with [^99mTcO2(DP^Ph-PSMAt)2]^+ ([1]; DU145-PSMA+ cells, 1 h) [%AR] | blocking of cell uptake by PSMA inhibitor PMPA ([1]; DU145-PSMA+ cells, 1 h) | blocking of cell uptake by PSMA inhibitor PMPA [2] | mean difference in uptake compared with [^99mTcO2(DP^MEP-PSMAt)2]^+ ([1]; DU145-PSMA+ cells, 1 h) [%AR]
1 | COCCOc1ccc(P(/C(C(=O)O)=C(/C(=O)NCCOCCOCCOCCOCCC(=O)NCCCC[C@H](NC(=O)N[C@@H](CCC(=O)O)C(=O)O)C(=O)O)P(c2ccc(OCCOC)cc2)c2ccc(OCCOC)cc2)c2ccc(OCCOC)cc2)cc1 [[^99mTcO2(DP^MEP-PSMAt)2]^+, metal not drawn] | 2.7 ± 0.8 | 12.7 | blocked | blocked | 
2 | COc1ccc(P(/C(C(=O)O)=C(/C(=O)NCCOCCOCCOCCOCCC(=O)NCCCC[C@H](NC(=O)N[C@@H](CCC(=O)O)C(=O)O)C(=O)O)P(c2ccc(OC)cc2)c2ccc(OC)cc2)c2ccc(OC)cc2)cc1 [[^99mTcO2(DP^An-PSMAt)2]^+, metal not drawn] | 8.9 ± 2.1 | 6.5 | blocked | blocked | 6.2

Reference: publication PMC12435366, “Maleic anhydride derived diphosphines: adaptable chelators for receptor-targeted ^99mTc, ^64Cu and ^188Re radiotracers” (Chemical Science, 2025)
